Here are results for two molecules from patent US4937229A, “Pineapple ketone carbonate derivatives” (priority 1989, dated 1990).

The conditions of data set [1]: 0 min.
Protocol: (§1) Solutions containing respectively 10 percent carbonate and ten percent pineapple ketone in toluene are stirred in loosely capped vials at ambient temperature. Samples are taken periodically and the concentration of carbonate or ketone remaining determined by GLC (6'×1/8", 15% Carbowax-20M on 80/100 Chromasorb W, Helium=28 cc/min, 100°-210° at 8°/min). The experiment is repeated using ethanol as solvent.
Another data set in a line: physchem. Particulars: toluene.

Where two headings read alike, the source gives them in different places.

Protocol for physchem: as §1

A word on the share remaining: it is what is left of the initial amount, in per cent. Lower therefore signals more turnover. `CCOC(=O)OC1=C(C)OC(C)C1=O` (stereo not drawn) [Example 1, ETHYL 2,5-DIMETHYL-3-OXO-4(2H)-FURYL CARBONATE]: the “% Remaining” value (0 min) was determined as 100%. Moreover, the “% Remaining” value in data set [1] is 100%. In addition, in the data set “physchem”, the fraction remaining at 21 h turned out to be 100%, the share remaining at 46 h stood at 100%, the amount remaining at 69 h is 100% and the fraction remaining at 149 h worked out at 100%. The same molecule gave a share remaining at 173 h in “physchem” of 100%.
On to `CC1=C(O)C(=O)C(C)O1` (stereo not drawn) [Pineapple ketone, 2,5-dimethyl-4-hydroxy-3(2H)-furanone], for which the “% Remaining” value (0 min) is reported as 100%; the “% Remaining” value (toluene, 15 h) is listed as 24%; the “% Remaining” value (toluene, 41 h) worked out at 18%; the “% Remaining” value (toluene, 116 h) was determined as 6%; the “% Remaining” value (toluene, 138 h) came to 4%; the “% Remaining” value in data set [1] amounted to 100%. Further, the share remaining at 21 h in the data set “physchem” was determined as 100%. This molecule came in with an amount remaining at 48 h in “physchem” of 58%. The molecule further displayed a share remaining at 72 h in “physchem” of 30%. The molecule also displayed a fraction remaining at 149 h in the data set “physchem” of 8%. The share remaining at 172 h in the data set “physchem” came out at 9%.
